Assay results published in patent US20060069132A1, “Azolecarboxamide herbicides” (priority 2004, published 2006).

Assays:
Test in all cases: Test C pre-/postemergence herbicide test
Surinam grass = assay type: in vivo, Urochloa decumbens; details: for Plant response rating (0 = no effect, 100 = complete control), Surinam Grass: 125 g ai/ha
Outline: (§1)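 Pre- and postemergence application, solvent/surfactant formulation; post at 1- to 4-leaf stage (2–18 cm). Greenhouse 12–14 d. Visual rating vs controls, 0 = no effect, 100 = complete control.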

woolly cupgrass = assay type: in vivo, Eriochloa villosa
Outline: as §1

johnsongrass = assay type: in vivo, Sorghum halepense
Outline: as §1

eastern black nightshade = assay type: in vivo, Solanum ptycanthum; details: preemergence; for Plant response rating (0 = no effect, 100 = complete control), Nightshade: 125 g ai/ha
Excerpt: (§2) Seeds of plant species selected from bermudagrass (Cynodon dactylon (L.) Pers.), Surinam grass (Urochloa decumbens (Staph) R. D. Webster, previously named Brachiaria decumbens Stapf), cocklebur (Xanthium strumarium L.), corn (Zea mays L.), large crabgrass (Digitaria sanguinalis (L.) Scop.), woolly cupgrass (Eriochloa villosa (Thunb.) Kunth), giant foxtail (Setaria faberi Herrm.), goosegrass (Eleusine indica (L.) Gaertn.), johnsongrass (Sorghum halepense (L.) Pers.), kochia (Kochia scoparia (L.) Schrad.), lambsquarters (Chenopodium album L.), morningglory (Ipomoea coccinea L.), eastern black nightshade (Solanum ptycanthum Dunal), yellow nutsedge (Cyperus esculentus L.), pigweed (Amaranthus retroflexus L.), common ragweed (Ambrosia elatior L.), soybean (Glycine max (L.) Merr.), common (oilseed) sunflower (Helianthus annuus L.) and velvetleaf (Abutilon theophrasti Medik.) were planted and treated preemergence with test chemicals formulated in a non-phytotoxic solvent mixture which included a surfactant.
(§3) At the same time, plants selected from these crop and weed species and also winter barley (Hordeum vulgare L.), blackgrass (Alopecurus myosuroides Huds.), canarygrass (Phalaris minor Retz.), chickweed (Stellaria media (L.) Vill.), downy bromegrass (Bromus tectorum L.), green foxtail (Setaria viridis (L.) Beauv.), Italian ryegrass (Lolium multiflorum Lam.), wheat (Triticum aestivum L.), wild oat (Avenafatua L.) and windgrass (Apera spica-venti (L.) Beauv.) were treated with postemergence applications of some of the test chemicals formulated in the same manner. Plants ranged in height from 2 to 18 cm (1- to 4-leaf stage) for postemergence treatments. Plant species in the flooded paddy test consisted of rice (Oryza sativa), smallflower umbrella sedge (Cyperus difformis L.), ducksalad (Heteranthera limosa (Sw.) Willd.) and barnyardgrass (Echinochloa crus-galli (L.) Beauv.) grown to the 2-leaf stage for testing. Treated plants and controls were maintained in a greenhouse for 12 to 14 days, after which time all species were compared to controls and visually evaluated. Plant response ratings, summarized in Table C, are based on a scale of 0 to 100 where 0 is no effect and 100 is complete control. A dash (-) response means no test result.

velvetleaf = assay type: in vivo, Abutilon theophrasti
Outline: as §1

corn = assay type: in vivo, Zea mays
Outline: as §1

[1] = system: common (oilseed) sunflower; assay type: in vivo, Helianthus annuus; details: preemergence; for Plant response rating (0 = no effect, 100 = complete control), Sunflower: 125 g ai/ha
Excerpt: as §2, §3

[2] = 62 g ai/ha, preemergence, scale 0 to 100
[3] = 250 g ai/ha, scale 0-100, preemergence
[4] = postemergence, 62 g ai/ha, scale 0 to 100
[5] = Postemergence, 250 g ai/ha, scale 0 to 100, 0 no effect, 100 complete control
[6] = postemergence, 125 g ai/ha, scale 0 to 100
[7] = 500 g ai/ha, scale 0 to 100 (0 no effect, 100 complete control), visual, 12 to 14 days, preemergence
[8] = 500 g ai/ha, scale 0 to 100 (0 no effect, 100 complete control), visual, 12 to 14 days

Compound | Plant response rating, Surinam Grass (Surinam grass; [2]) | Plant response rating (0 = no effect, 100 = complete control), Surinam Grass (Surinam grass; preemergence) | Plant response rating, Cupgrass, Woolly (woolly cupgrass; [2]) | Plant response rating (0 = no effect, 100 = complete control), Cupgrass, Woolly (woolly cupgrass; 125 g ai/ha, preemergence) | Plant response rating, Cupgrass, Woolly (woolly cupgrass; [3]) | Plant response rating, Johnsongrass (johnsongrass; [2]) | Plant response rating (0 = no effect, 100 = complete control), Johnsongrass (johnsongrass; 125 g ai/ha, preemergence) | Plant response rating, Johnsongrass (johnsongrass; [3]) | Plant response rating, Nightshade (eastern black nightshade; 62 g ai/ha, scale 0 to 100) | Plant response rating (0 = no effect, 100 = complete control), Nightshade (eastern black nightshade) | Plant response rating, Velvetleaf (velvetleaf; [2]) | Plant response rating (0 = no effect, 100 = complete control), Velvetleaf (velvetleaf; 125 g ai/ha, preemergence) | Plant response rating, Corn (corn; [2]) | Plant response rating (0 = no effect, 100 = complete control), Corn (corn; 125 g ai/ha, preemergence) | Plant response rating, Corn (corn; [3]) | Plant response rating, Sunflower ([1]; 62 g ai/ha, scale 0 to 100) | Plant response rating (0 = no effect, 100 = complete control), Sunflower [1] | further results
CCOC(=O)c1cccc(NC(=O)c2nn(C(C)(C)CC)nc2CC)c1 [Compound 375] | 55 | 75 | 60 | 70 | 70 | 0 | 5 | 5 | 50 | 50 | 0 | 30 | 0 | 5 | 5 | 0 | 0 | Plant response rating, Surinam Grass (Surinam grass; [3]): 80; Plant response rating, Surinam Grass (Surinam grass; [4]): 20; Plant response rating, Cupgrass, Woolly (woolly cupgrass; [5]): 45; Plant response rating, Cupgrass, Woolly (woolly cupgrass; [6]): 30; Plant response rating, Cupgrass, Woolly (woolly cupgrass; [4]): 30; Plant response rating, Johnsongrass (johnsongrass; [5]): 10; Plant response rating, Johnsongrass (johnsongrass; [6]): 5; Plant response rating, Johnsongrass (johnsongrass; [4]): 5; Plant response rating, Nightshade (eastern black nightshade; 250 g ai/ha, scale 0-100): 55; Plant response rating, Velvetleaf (velvetleaf; [3]): 80; Plant response rating, Velvetleaf (velvetleaf; [6]): 85; Plant response rating, Velvetleaf (velvetleaf; [4]): 60; Plant response rating, Corn (corn; [5]): 20; Plant response rating, Corn (corn; [6]): 15; Plant response rating, Corn (corn; [4]): 10; Plant response rating, Sunflower ([1]; 250 g ai/ha, scale 0-100): 0
C=CCNC(=O)c1cccc(NC(=O)c2nn(C(C)(C)C)nc2CC)c1 [Compound 414] | 0 | 80 | 0 | 80 | 95 | 95 | 95 | 100 | 85 | 90 | 90 | 100 | 0 | 0 | 50 | 0 | 0 | Plant response rating, Surinam Grass (Surinam grass; [7]): 100; Plant response rating, Cupgrass, Woolly (woolly cupgrass; [7]): 100; Plant response rating, Johnsongrass (johnsongrass; [7]): 100; Plant response rating, Nightshade (eastern black nightshade; [8]): 100; Plant response rating, Velvetleaf (velvetleaf; [7]): 100; Plant response rating, Corn (corn; [7]): 80; Plant response rating, Sunflower [1, 8]: 0
